Measurements taken from patent US20240294465A1, “NOVEL ANTI-FIBROTIC DRUGS” (HELMHOLTZ ZENTRUM MUNCHEN - DEUTSCHES FORSCHUNGSZENTRUM FUR …, priority 2021, published 2024).

Each compound was assayed on TGFβ1-induced fibulin-1 ECM deposition in primary human lung IPF-fibroblasts (phLFs) (assay: Assessing N23P activity in inhibiting ECM deposition in IPF-fibroblasts (fibulin-1 MFI)). Details: Homo sapiens, 72 h, 10 μM, TGFβ1 1 ng/ml, MFI, one or two different IPF-phLFs (n=1-2).
Type: cell-based
Method: phLFs were cultured in DMEM F-12 medium with 20% fetal bovine serum (FBS) and antibiotic supplement as mentioned above. Cells were seeded with 6000 cells/well in 384-well CellCarrier plates (Perkin Elmer, Cat #6007550). Following overnight incubation, cells were starved in serum-reduced medium (1% FBS with 0.1 mM 2-phosphoascorbate (Sigma, Cat #49752)) for 24 h. Afterwards, cells were treated with TGFβ1 (1 ng/ml) or vehicle, and additionally small molecules or appropriate vehicle controls were added. After 72 h of incubation, medium was changed for starving medium with 1 μg/mL AlexaFluor-488 fluorophore conjugated anti-collagen-type-5 antibodies (SantaCruz, Clone C-5, Cat #sc-166155 AF488), 0.66 μg/mL AlexaFluor-555 fluorophore conjugated anti-collagen-type-1 antibodies (Rockland, Cat #600-401-103-0.1), and 1 μg/mL AlexaFluor-637 fluorophore conjugated anti-fibulin 1 antibodies (SantaCruz, Clone C-5, Cat #sc-25281 AF647) and 1 μg/mL Hoechst H33342 (Sigma). Fluorescenceconjugation of the collagen type 1 antibody was done by using the AlexaFluor-555 Protein Labeling Kit (Invitrogen, Cat #A20174) according to manufacturer's instructions. Labeling efficacy was controlled by photometrical means.
Following four hours of incubation, cells were washed three times with PBS and fixed with paraformaldehyde (PFA). For automated liquid handling in 384 well plates, an INTEGRA Assist Plus (INTEGRA, Zizers, Switzerland) equipped with an INTEGRA Viaflo 1I pipette (INTEGRA, Zizers, Switzerland, Cat #4642), 125 μL GripTips™ pipette tips (INTEGRA, Zizers, Switzerland, Cat #6464) and sterile reagent reservoirs (INTEGRA, Cat #4311) were applied. All automated pipetting steps with the INTEGRA Assist Plus were performed at 9.5 μL/s in order to ensure proper integrity and attachment of the deposited ECM to the culturing surface within the wells of the 384-well plates. During cell seeding the automated liquid handling was performed at 89.3 μL/s. Removal of liquids from the well-plates was done by manually inverting the plates.
Following fixation, the automated imaging was achieved by using aconfocal laser scanning microscope (LSM710, Zeiss) with automated focus detection for three-dimensional image acquisition (1024 px×1024 px×9 px which equals a dimension of 1417 μm×1417 μm×16 μm). For post-acquisition analysis images were imported into IMARIS software (Bitplane) and volume detection or alternatively quantification of the mean fluorescence intensity, as well as Hoechst-stained cell nuclei were automatically counted by using Imaris' spot detection algorithm.
Cells were seeded with 6000 cells/well in 384-well CellCarrier plates. After overnight incubation, cells were starved in serum-reduced medium (1% FBS with 0.1 mM 2-phosphoascorbate for 24 h). Then, phLFs were treated with TGFβ1 (1 ng/ml) or vehicle, and incubated together with synthesized N23Ps (10 μM) or appropriate vehicle controls. After 72 h of incubation, medium was changed for starvation medium with 1 μg/mL AlexaFluor-637 fluorophore conjugated anti-fibulin 1 antibodies (SantaCruz, Clone C-5, Cat #sc-25281 AF647) and 1 μg/mL Hoechst H33342 (Sigma). Following four hours of incubation, cells were washed three times with PBS and fixed with paraformaldehyde (PFA). Following fixation, the automated imaging was achieved by using a confocal laser scanning microscope (LSM710, Zeiss) with automated focus detection for three-dimensional image acquisition (1024 px×1024 px×9 px which equals a dimension of 1417 μm×1417 μm×16 μm). For post-acquisition analysis images were imported into IMARIS software (Bitplane) and quantified for the mean fluorescence intensity, as well as Hoechst-stained cell nuclei were automatically counted by using Imaris' spot detection algorithm.
Assessment of ECM inhibition I: Mean fluorescence intensity (MFI) values represented the degree of fibulin-1 ECM deposition in three different IPF-phLFs (n=3). […]

First: CCCCOc1ccccc1NC(=O)/C(=C/c1ccc(OC)cc1)C(C)C [Example 82, (E)-N-(2-butoxyphenyl)-2-(4-methoxybenzylidene)-3-methylbutanamide]
Second: COc1ccc(/C=C/C(=O)Nc2ccccc2OCCCC2CC2)cc1 [Example 60, (E)-N-(2-(3-cyclopropylpropoxy)phenyl)-3-(4-methoxyphenyl)acrylamide]
The inhibition at 10 µM of the first is lower: 20 to 60% for the first, greater than 90% for the second.

First: O=C(/C=C/c1ccc2c(c1)OC(F)(F)O2)Nc1ccc(F)c(F)c1OCCC1CC1 [Example 156, (E)-N-(2-(2-cyclopropylethoxy)-3,4-difluorophenyl)-3-(2,2-difluorobenzo[d][1,3]dioxol-5-yl)acrylamide]
Second: CCCCOc1ccccc1NC(=O)/C=C/c1ccc2c(c1)OC(F)(F)O2 [Example 6]
The inhibition at 10 µM of the first is higher: 60 to 90% for the first, 20 to 60% for the second.

First: C#CCCCOc1ccc(/C=C/C(=O)Nc2ccccc2OCCCC)cc1 [Example 83, (E)-N-(2-butoxyphenyl)-3-(4-(pent-4-yn-1-yloxy)phenyl)acrylamide]
Second: C#CCCCOc1ccc(/C=C/C(=O)Nc2ccccc2OCCC2(C)N=N2)cc1 [Example 168, (E)-N-(2-(2-(3-methyl-3H-diazirin-3-yl)ethoxy)phenyl)-3-(4-(pent-4-yn-1-yloxy)phenyl)acrylamide]
The inhibition at 10 µM of the first is higher: greater than 90% for the first, 60 to 90% for the second.

`CCCCOc1ccccc1NC(=O)/C=C/c1ccc2c(c1)CCC(C)(C)O2` [Example 63] and `CCCCOc1ccccc1NC(=O)/C=C/c1ccc2nonc2c1` [Example 166, (E)-3-(benzo[c][1,2,5]oxadiazol-5-yl)-N-(2-butoxyphenyl)acrylamide] fall in the same range of inhibition at 10 µM: 20 to 60% for the first, 20 to 60% for the second.

Compared with `C#CCOc1ccc(/C=C/C(=O)Nc2ccccc2OCCC2(C)N=N2)cc1` [Example 167, (E)-N-(2-(2-(3-methyl-3H-diazirin-3-yl)ethoxy)phenyl)-3-(4-(prop-2-yn-1-yloxy)phenyl)acrylamide], `C#CCCOc1ccccc1NC(=O)/C=C/c1ccc(OC)cc1` [Example 46, (E)-N-(2-(but-3-yn-1-yloxy)phenyl)-3-(4-methoxyphenyl)acrylamide] is lower in inhibition at 10 µM: 60 to 90% for the first, 20 to 60% for the second.

First: CCCCOc1c(NC(=O)/C=C/c2ccc3sc(C)nc3c2)ccc(F)c1F [Example 162, (E)-N-(2-butoxy-3,4-difluorophenyl)-3-(2-methylbenzo[d]thiazol-5-yl)acrylamide]
Second: CCCCOc1c(NC(=O)/C=C/c2ccc3[nH]ccc3c2)ccc(F)c1F [Example 163, (E)-N-(2-butoxy-3,4-difluorophenyl)-3-(1H-indol-5-yl)acrylamide]
The inhibition at 10 µM of the first is higher: 60 to 90% for the first, 20 to 60% for the second.

First: COc1ccc(/C=C/C(=O)Nc2ccccc2OCCC(F)(F)F)cc1 [Example 155, (E)-3-(4-methoxyphenyl)-N-(2-(3,3,3-trifluoropropoxy)phenyl)acrylamide]
Second: CCCCOc1ccccc1NC(=O)/C=C/c1ccc(S(C)(=O)=O)cc1 [Example 153, (E)-N-(2-butoxyphenyl)-3-(4-(methylsulfonyl)phenyl)acrylamide]
The inhibition at 10 µM of the first is lower: 60 to 90% for the first, greater than 90% for the second.

Same assay, conditions: Homo sapiens, 72 h, 10 μM, TGFβ1 1 ng/ml, MFI, three different IPF-phLFs (n=3)

First: COc1ccc(/C=C/C(=O)Nc2ccccc2Oc2ccc(Cl)cc2)cc1 [Example 39, (E)-N-(2-(4-chlorophenoxy)phenyl)-3-(4-methoxyphenyl)acrylamide]
Second: COc1ccc(/C=C/C(=O)Nc2ccccc2OCc2ccc(Cl)cc2)cc1 [Example 45, (E)-N-(2-((4-chlorobenzyl)oxy)phenyl)-3-(4-methoxyphenyl)acrylamide]
The inhibition at 10 µM of the first is lower: 60 to 90% for the first, greater than 90% for the second.

Compared with `CCCCOc1ccccc1N(C)C(=O)/C=C/c1ccc(OC)c(OC)c1` [Example 67], `CCCCOc1cccc(Cl)c1NC(=O)/C=C/c1ccc(OC)c(OC)c1` [Example 36, (E)-N-(2-butoxy-6-chlorophenyl)-3-(3,4-dimethoxyphenyl)acrylamide] is lower in inhibition at 10 µM: greater than 90% for the first, 60 to 90% for the second.

`CCCCOc1ccccc1NC(=O)/C=C/c1ccc(OC(F)F)cc1` [Example 11, (E)-N-(2-butoxyphenyl)-3-(4-(difluoromethoxy)phenyl)acrylamide] and `CCCCOc1ccccc1NC(=O)/C=C/c1ccc(OCC)cc1` [Example 20, (E)-N-(2-butoxyphenyl)-3-(4-ethoxyphenyl)acrylamide] fall in the same range of inhibition at 10 µM: 60 to 90% for the first, 60 to 90% for the second.

First: CCCCOc1c(NC(=O)/C=C/c2ccc(OC)cc2)ccc(F)c1F [Example 13]
Second: CCCCOc1cc(Cl)ccc1NC(=O)/C=C/c1ccc(OC)cc1 [Example 21, (E)-N-(2-butoxy-4-chlorophenyl)-3-(4-methoxyphenyl)acrylamide]
The inhibition at 10 µM of the first is higher: greater than 90% for the first, 20 to 60% for the second.

Compared with `CCCCOc1ccccc1NC(=O)/C=C/c1ccc(OCC(F)(F)F)cc1` [Example 2, (E)-N-(2-butoxyphenyl)-3-(4-(2,2,2-trifluoroethoxy)phenyl)acrylamide], `COc1ccc(/C=C/C(=O)Nc2ccccc2OCCCC(F)(F)F)cc1` [Example 29, (E)-3-(4-methoxyphenyl)-N-(2-(4,4,4-trifluorobutoxy)phenyl)acrylamide] is lower in inhibition at 10 µM: 60 to 90% for the first, 20 to 60% for the second.

First: COc1ccc(/C=C/C(=O)Nc2ccccc2Oc2ccccc2F)cc1 [Example 43, (E)-N-(2-(2-fluorophenoxy)phenyl)-3-(4-methoxyphenyl)acrylamide]
Second: COc1ccc(/C=C/C(=O)Nc2ccccc2Oc2ccccc2)cc1 [Example 3, (E)-3-(4-methoxyphenyl)-N-(2-phenoxyphenyl)acrylamide]
The inhibition at 10 µM of the first is lower: 60 to 90% for the first, greater than 90% for the second.

`COc1ccc(/C=C/C(=O)Nc2ccccc2OCc2ccccc2)cc1` [Example 12, (E)-N-(2-(benzyloxy)phenyl)-3-(4-methoxyphenyl)acrylamide] and `CCCCOc1ccccc1N(Cc1ccccc1)C(=O)/C=C/c1ccc(OC)cc1` [Example 75, (E)-N-benzyl-N-(2-butoxyphenyl)-3-(4-methoxyphenyl)acrylamide] cannot be ordered by inhibition at 10 µM: greater than 90% for the first, greater than 90% for the second.

Compared with `C#CCCCOc1ccc(/C=C/C(=O)Nc2ccccc2OCCCC)cc1` [Example 83, (E)-N-(2-butoxyphenyl)-3-(4-(pent-4-yn-1-yloxy)phenyl)acrylamide], `CCCCOc1ccccc1NC(=O)/C=C/c1cccc(OC)c1` [Example 7, (E)-N-(2-butoxyphenyl)-3-(3-methoxyphenyl)acrylamide] is lower in inhibition at 10 µM: greater than 90% for the first, 60 to 90% for the second.

Compared with `COc1ccc(/C=C/C(=O)Nc2ccccc2OCCC2CC2)cc1` [Example 38, (E)-N-(2-(2-cyclopropylethoxy)phenyl)-3-(4-methoxyphenyl)acrylamide], `CCCCOc1cc(F)ccc1NC(=O)/C=C/c1ccc(OC)cc1` [Example 31, (E)-N-(2-butoxy-4-fluorophenyl)-3-(4-methoxyphenyl)acrylamide] is lower in inhibition at 10 µM: greater than 90% for the first, 60 to 90% for the second.

`CCCCOc1ccccc1NC(=O)/C=C/c1cc(F)c(OC)c(F)c1` [Example 33, (E)-N-(2-butoxyphenyl)-3-(3,5-difluoro-4-methoxyphenyl)acrylamide] and `CCCCOc1ccccc1NC(=O)/C=C/c1ccc2c(c1)OC(F)(F)O2` [Example 6] fall in the same range of inhibition at 10 µM: 60 to 90% for the first, 60 to 90% for the second.

`CCCCOc1ccccc1NC(=O)/C=C/c1ccc2c(c1)CCO2` [Example 34, (E)-N-(2-butoxyphenyl)-3-(2,3-dihydrobenzofuran-5-yl)acrylamide] and `CCCCOc1ccccc1NC(=O)/C=C/c1ccc2occc2c1` [Example 37, (E)-3-(benzofuran-5-yl)-N-(2-butoxyphenyl)acrylamide] cannot be ordered by inhibition at 10 µM: greater than 90% for the first, greater than 90% for the second.

`CCCCOc1ccccc1N(C)C(=O)/C=C/c1ccc(OCC)cc1` [Example 71, (E)-N-(2-butoxyphenyl)-3-(4-ethoxyphenyl)-N-methylacrylamide] gave an inhibition at 10 µM of 20 to 60%.

Same assay, conditions: at 10 μM

With `COc1ccc(/C=C/C(=O)Nc2ccccc2C(=O)O)cc1OC` [Tranilast, reference compound] the “inhibition of TGFβ1-induced ECM deposition” value was “no inhibition”.
